Consider one compound from US20260077056A1, “LINKER-PAYLOAD COMPOUND, CONJUGATES AND APPLICATIONS THEREOF” (priority 2022, published 2026).

Data set [1] concerns FGFR3 high-expressing cancer cells RT112/84. Put plainly: Cytotoxicity assay (CellTiter-Glo cell viability), RT112/84. In kind it is cell-based. As to conditions: RT112/84, FGFR3-positive; 96 h. On the procedure: (§1) Cytotoxicity assays were performed using FGFR3 high-expressing cancer cells RT112/84 and RT4, FGFR3 negative cancer cell MCF-7 (FIG. 7) to analyze the effect of conjugates on tumor cell proliferation. The tested articles included conjugate EC302-2-4-1-2, and a small molecule eribulin (structure is depicted above). In brief, 2000 cells (RT112/84) or 5000 cells (RT4 or MCF-7) were plated in 96-well plates, and cells were able to attach overnight. Cells were treated with indicated drugs with various concentrations for 96 h. Cell viabilities were examined by CellTiter-Glo® Luminescent Cell Viability Assay, and percentage of cell viability was calculated.

Data set [2] has as its system HER2 high-expressing cancer cells SK-BR-3. In words: Cytotoxicity assay (CellTiter-Glo cell viability), SK-BR-3. In kind it is cell-based. The note with it: for IC50: Homo sapiens, SK-BR-3, 96 h, 96 h treatment. The protocol:
(§2) Cytotoxicity assays were performed using HER2 high-expressing cancer cells NCI-N87 (FIG. 1) and SK-BR-3 (FIG. 2), as well as a HER2 negative cell line MDA-MB-468 (FIG. 3) to analyze the effect of conjugates on tumor cell proliferation. The tested articles included conjugates EC302-2-4-1-1 and EC301-2-1-1-1, and a small molecule eribulin (structure is depicted above). In brief, 5000 cells were plated in 96-well plates, and cells were able to attach overnight. Cells were treated with indicated drugs with various concentrations for 96 h. Cell viabilities were examined by CellTiter-Glo® Luminescent Cell Viability Assay, and percentage of cell viability was calculated.
(§3) Cytotoxicity assays were performed using HER2 high-expressing cancer cells NCI-N87 (FIG. 4) and SK-BR-3 (FIG. 5), as well as a HER2 negative cell line MDA-MB-468 (FIG. 6) to analyze the effect of conjugates on tumor cell proliferation. […] In brief, 5000 cells were plated in 96-well plates, and cells were able to attach overnight. Cells were treated with indicated drugs with various concentrations for 96 h. Cell viabilities were examined by CellTiter-Glo® Luminescent Cell Viability Assay, and percentage of cell viability was calculated.

Data set [3] concerns HER2 high-expressing cancer cells NCI-N87. In words: Cytotoxicity assay (CellTiter-Glo cell viability), NCI-N87. In kind it is cell-based, human. The note with it: for IC50: Homo sapiens, NCI-N87, 96 h, 96 h treatment. The protocol: as §2, §3
For data set [4], the system named is FGFR3 negative cancer cell MCF-7. Put plainly: Cytotoxicity assay (CellTiter-Glo cell viability), MCF-7. It is filed as cell-based. The note with it: 96 h. On the procedure: as §1
The subject of data set [5] is FGFR3 high-expressing cancer cells RT4. Put plainly: Cytotoxicity assay (CellTiter-Glo cell viability), RT4. In kind it is cell-based. As to conditions: RT4, FGFR3-positive; 96 h. On the procedure: as §1
Data set [6] relates to HER2 negative cell line MDA-MB-468. In words: Cytotoxicity assay (CellTiter-Glo cell viability), MDA-MB-468. In kind it is cell-based. The note with it: for IC50: Homo sapiens, MDA-MB-468, 96 h, 96 h treatment. The protocol: Cytotoxicity assays were performed using HER2 high-expressing cancer cells NCI-N87 (FIG. 1) and SK-BR-3 (FIG. 2), as well as a HER2 negative cell line MDA-MB-468 (FIG. 3) to analyze the effect of conjugates on tumor cell proliferation. […] In brief, 5000 cells were plated in 96-well plates, and cells were able to attach overnight. Cells were treated with indicated drugs with various concentrations for 96 h. Cell viabilities were examined by CellTiter-Glo® Luminescent Cell Viability Assay, and percentage of cell viability was calculated.
as §3

Regarding `C=C1C[C@@H]2CC[C@@]34C[C@H]5O[C@H]6[C@@H](O3)[C@H]3O[C@H](CC[C@@H]3O[C@H]6[C@H]5O4)CC(=O)C[C@@H]3[C@@H](OC)[C@@H](C[C@H](O)CN)O[C@H]3C[C@H]3O[C@@H](CC[C@@H]1O2)C[C@@H](C)C3=C` [Eribulin], the “effect on cell proliferation, in words” value in data set [1] and in data set [5] was “sensitive” throughout. In addition, the “cell proliferation-inhibitory effect, in words” value in data set [2] (Effect Example 1, SK-BR-3, HER2 high) is recorded as “sensitive”; in data set [3] (Effect Example 1, NCI-N87, HER2 high), “sensitive”. Besides, the half-inhibitory concentration (IC50) in data set [2] (Effect Example 1, Table 4) was determined as 0.298 nM; in data set [2] (Effect Example 2, Table 5), 0.211 nM; in data set [3] (Effect Example 1, Table 4), 0.448 nM; in data set [3] (Effect Example 2, Table 5), 0.501 nM; in data set [6] (Effect Example 1, Table 4) it was 0.211 nM; in data set [6] (Effect Example 2, Table 5) it was 0.094 nM. The “cytotoxicity, in words” value in data set [4] was “sensitive”; in data set [6] (Effect Example 1, MDA-MB-468, HER2 negative), “sensitive”.
